Columns and labels:
[1] = target: T1, human recombinant adrenergic α2B receptor (Homo sapiens, UniProt P18089); test: Radioligand binding, adrenergic α2B ([3H]Rauwolscine); settings: for Percentage inhibition of ligand binding, Adrenergic α2B / inhibition at 0.03 µM: 0.03 μM compound; for Percentage inhibition of ligand binding, Adrenergic α2B: 0.03 µM
T1 construct: expressed in transfected cells; host or cells: CHO-K1
T1 sequence (P18089 1-450): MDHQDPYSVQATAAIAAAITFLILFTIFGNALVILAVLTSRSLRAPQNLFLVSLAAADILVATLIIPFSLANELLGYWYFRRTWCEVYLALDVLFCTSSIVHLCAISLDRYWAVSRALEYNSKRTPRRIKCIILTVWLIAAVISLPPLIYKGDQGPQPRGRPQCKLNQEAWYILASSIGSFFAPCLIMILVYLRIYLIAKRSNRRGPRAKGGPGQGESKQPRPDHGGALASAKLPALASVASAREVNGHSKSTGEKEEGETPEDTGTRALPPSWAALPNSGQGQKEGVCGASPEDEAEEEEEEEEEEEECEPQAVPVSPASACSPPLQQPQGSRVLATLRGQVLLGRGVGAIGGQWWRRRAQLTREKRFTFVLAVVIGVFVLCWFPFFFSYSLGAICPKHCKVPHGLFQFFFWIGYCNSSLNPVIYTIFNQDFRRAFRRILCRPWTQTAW
Method in brief: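 Assay used CHO-K1-expressed human α2B receptor in Tris-HCl pH 7.4 buffer with MgCl2, EDTA and BSA; 60 min incubation at 25 °C.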

[2] = target: T2, human recombinant adrenergic α2A receptor (Homo sapiens, UniProt P08913); test: Radioligand binding, adrenergic α2A ([3H]MK-912); settings: 0.1 μM compound; for Percentage inhibition of ligand binding, Adrenergic α2A: 0.1 µM; for inhibition at 0.1 µM: read-out: Percentage inhibition of ligand binding, Adrenergic α2A
T2 construct: expressed in transfected cells; host or cells: insect Sf9 cells
T2 sequence (P08913 1-465): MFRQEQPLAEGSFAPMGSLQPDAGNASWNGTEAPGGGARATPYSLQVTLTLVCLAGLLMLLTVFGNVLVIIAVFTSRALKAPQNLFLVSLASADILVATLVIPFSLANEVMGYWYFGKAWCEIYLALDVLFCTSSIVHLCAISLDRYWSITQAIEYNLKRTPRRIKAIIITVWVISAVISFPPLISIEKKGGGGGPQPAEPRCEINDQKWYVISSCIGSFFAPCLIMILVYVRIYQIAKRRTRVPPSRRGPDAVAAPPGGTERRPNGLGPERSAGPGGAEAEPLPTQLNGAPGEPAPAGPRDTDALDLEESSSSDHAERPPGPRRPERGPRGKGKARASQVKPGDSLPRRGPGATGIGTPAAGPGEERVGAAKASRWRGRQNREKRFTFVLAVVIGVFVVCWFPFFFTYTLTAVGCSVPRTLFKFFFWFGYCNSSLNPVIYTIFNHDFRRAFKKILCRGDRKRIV
Method in brief: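 Displacement of 1 nM [3H]MK-912 from receptor produced in insect Sf9 cells was measured after 60 min at 25 °C. Readout: percent inhibition of specific binding.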

[3] = target: T3, rat adrenergic α1B receptor (Rattus norvegicus, UniProt P15823); test: Radioligand binding, adrenergic α1B ([3H]Prazosin); settings: for Percentage inhibition of ligand binding, Adrenergic α1B: 0.1 µM
T3 construct: rat adrenergic α1B receptor obtained from Wistar Rat liver; from tissue; host or cells: Wistar rat liver
T3 sequence (P15823 1-515): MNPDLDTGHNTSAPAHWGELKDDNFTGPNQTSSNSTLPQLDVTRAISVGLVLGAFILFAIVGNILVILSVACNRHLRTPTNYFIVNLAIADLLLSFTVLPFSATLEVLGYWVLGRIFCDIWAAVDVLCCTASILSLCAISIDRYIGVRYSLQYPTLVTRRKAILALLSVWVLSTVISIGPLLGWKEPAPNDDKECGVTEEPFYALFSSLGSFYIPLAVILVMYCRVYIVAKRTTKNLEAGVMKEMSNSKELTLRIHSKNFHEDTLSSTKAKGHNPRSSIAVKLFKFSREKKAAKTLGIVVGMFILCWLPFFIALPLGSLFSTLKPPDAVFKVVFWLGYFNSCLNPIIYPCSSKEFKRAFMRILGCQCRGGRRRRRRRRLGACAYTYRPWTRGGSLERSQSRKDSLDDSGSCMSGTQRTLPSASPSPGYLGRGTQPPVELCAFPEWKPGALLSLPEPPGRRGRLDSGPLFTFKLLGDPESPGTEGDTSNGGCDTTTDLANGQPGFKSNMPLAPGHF
Method in brief: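 Rat α1B receptor from Wistar rat liver was incubated with 0.25 nM [3H]prazosin for 60 min at 25 °C in 50 mM Tris-HCl, pH 7.4, 0.5 mM EDTA. Non-specific binding was defined with 10 μM phentolamine. Bound radioligand was measured by filtration and counting, reported as percent inhibition of specific binding.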

[4] = read-out: Percentage inhibition of ligand binding, Adrenergic α2B

| Percentage inhibition of ligand binding, Adrenergic α2B [1] [%] | Percentage inhibition of ligand binding, Adrenergic α2A [2] [%] | Percentage inhibition of ligand binding, Adrenergic α1B ([3]; 0.1 μM compound) [%] | inhibition at 0.03 µM [1, 4] [%] | inhibition at 0.1 µM [2] [%] | inhibition at 0.1 µM ([1]; 0.1 μM compound, read-out: Percentage inhibition of ligand binding, Adrenergic α2B) [%] | Ki ([1]; read-out: Ki α2B) [nM] | inhibition at 0.03 µM ([3]; 0.03 μM compound, read-out: Percentage inhibition of ligand binding, Adrenergic α1B) [%] | inhibition at 0.1 µM ([3]; 0.1 μM compound, read-out: Percentage inhibition of ligand binding, Adrenergic α1B) [%] | Structure (SMILES) |
| --- | --- | --- | --- | --- | --- | --- | --- | --- | --- |
| 32 | 1 | −7 | – | – | – | – | – | – | CC(=O)NC(Cn1c2c(c3cc(C)ccc31)CN(C)CC2)c1ccncc1 (single isomer, unassigned) [II-1b, N-(2-(1,2,3,4-tetrahydro-2,8-dimethylpyrido[4,3-b]indol-5-yl)-1-(pyridin-4-yl)ethyl)acetamide] |
| – | 45 | 66 | 85 | – | – | – | – | – | Cc1ccc2c(c1)c1c(n2CC(C)(c2cnccn2)N(C)C)CCN2CCCC12 (single isomer, unassigned) [II-6a, dimethyl-[1-methyl-2-(9-methyl-1,2,3,4,5,10c-hexahydro-3a,6-diaza-cyclopenta[c]fluoren-6-yl)-1-pyrazin-2-yl-ethyl]-amine] |
| 102 | 81 | 91 | – | – | – | – | – | – | Cc1ccc2c(c1)c1c(n2CC(C)(c2cnccn2)N(C)C)CCN2CCCC12 (single isomer, unassigned) [II-6b, dimethyl-[1-methyl-2-(9-methyl-1,2,3,4,5,10c-hexahydro-3a,6-diaza-cyclopenta[c]fluoren-6-yl)-1-pyrazin-2-yl-ethyl]-amine] |
| 53 | 22 | 9 | – | – | – | – | – | – | Cc1ccc2c(c1)c1c(n2CC(N)c2ccc(F)cc2)CCN(C)C1 (single isomer, unassigned) [II-11a, 2-(2,8-dimethyl-3,4-dihydro-1H-pyrido[4,3-b]indol-5(2H)-yl)-1-(4-fluorophenyl)ethanamine] |
| 89 | 43 | 76 | – | – | – | – | – | – | Cc1ccc2c(c1)c1c(n2CC(N)c2ccc(F)cc2)CCN(C)C1 (single isomer, unassigned) [II-11b, 2-(2,8-dimethyl-3,4-dihydro-1H-pyrido[4,3-b]indol-5(2H)-yl)-1-(4-fluorophenyl)ethanamine] |
| 89 | 25 | 26 | – | – | – | – | – | – | CNC(Cn1c2c(c3cc(C)ccc31)CN(C)CC2)c1ccc(F)cc1 (single isomer, unassigned) [II-12a, 2-(2,8-dimethyl-3,4-dihydro-1H-pyrido[4,3-b]indol-5(2H)-yl)-1-(4-fluorophenyl)-N-methyl ethanamine] |
| 65 | 15 | 11 | – | – | – | – | – | – | CNC(Cn1c2c(c3cc(C)ccc31)CN(C)CC2)c1ccc(F)cc1 (single isomer, unassigned) [II-12b, 2-(2,8-dimethyl-3,4-dihydro-1H-pyrido[4,3-b]indol-5(2H)-yl)-1-(4-fluorophenyl)-N-methyl ethanamine] |
| 88 | – | 30 | – | 34 | – | – | – | – | Cc1ccc2c(c1)c1c(n2CC(c2ccc(F)cc2)N(C)C)CCN(C)C1 (single isomer, unassigned) [II-14a, 2-(2,8-dimethyl-3,4-dihydro-1H-pyrido[4,3-b]indol-5(2H)-yl)-1-(4-fluorophenyl)-N,N-dimethylethanamine] |
| 33 | 17 | 8 | – | – | – | – | – | – | Cc1ccc2c(c1)c1c(n2CC(c2ccc(F)cc2)N(C)C)CCN(C)C1 (single isomer, unassigned) [II-14b, 2-(2,8-dimethyl-3,4-dihydro-1H-pyrido[4,3-b]indol-5(2H)-yl)-1-(4-fluorophenyl)-N,N-dimethylethanamine] |
| – | 7 | 61 | 47 | – | – | – | – | – | CC(=O)OC(C)(Cn1c2c(c3cc(C)ccc31)CN(C)CC2)c1cccnc1 (single isomer, unassigned) [II-15a, acetic acid 2-(2,8-dimethyl-1,2,3,4-tetrahydro-pyrido[4,3-b]indol-5-yl)-1-methyl-1-pyridin-3-yl-ethyl ester] |
| 40 | 18 | 5 | – | – | – | – | – | – | CC(=O)OC(C)(Cn1c2c(c3cc(C)ccc31)CN(C)CC2)c1cccnc1 (single isomer, unassigned) [II-15b, acetic acid 2-(2,8-dimethyl-1,2,3,4-tetrahydro-pyrido[4,3-b]indol-5-yl)-1-methyl-1-pyridin-3-yl-ethyl ester] |
| 73 | – | 46 | 65 | 32 | 88 | 5.58 | 16 | 32 | Cc1ccc2c(c1)c1c(n2CC(C)(OC(=O)C(C)(C)C)c2cccnc2)CCN(C)C1 (single isomer, unassigned) [II-16b, 2,2-dimethyl-propionic acid 2-(2,8-dimethyl-1,2,3,4-tetrahydro-pyrido[4,3-b]indol-5-yl)-1-methyl-1-pyridin-3-yl-ethyl ester] |
| – | – | 47 | 43 | 34 | – | – | – | – | Cc1ccc2c(c1)c1c(n2CC(O)c2ccccc2F)CN(C)CC1 (single isomer, unassigned) [II-49a, 2-(2,6-dimethyl-3,4-dihydro-1H-pyrido[3,4-b]indol-9(2H)-yl)-1-(2-fluorophenyl)ethanol] |
| 50 | 18 | 69 | – | – | – | – | – | – | Cc1ccc2c(c1)c1c(n2CC(O)c2ccccc2F)CN(C)CC1 (single isomer, unassigned) [II-49b, 2-(2,6-dimethyl-3,4-dihydro-1H-pyrido[3,4-b]indol-9(2H)-yl)-1-(2-fluorophenyl)ethanol] |
| 24 | −5 | 7 | – | – | – | – | – | – | OCCN1CCc2c(c3cc(Cl)ccc3n2CC(O)c2cccnc2)C1 (single isomer, unassigned) [II-94b] |
| 53 | 16 | 32 | – | – | – | – | – | – | Cc1ccc2c(c1)c1c(n2C(C)C(O)c2ccccc2)CCN(C)C1 (single isomer, unassigned) [II-95a, 2-(2,8-dimethyl-1,2,3,4-tetrahydro-pyrido[4,3-b]indol-5-yl)1-phenyl-propan-1-ol] |
